The values that follow come from patent publication US8821888B2, “Xylogone ganodermophthora strain with antifungal activity, and composition including same for preventing plant diseases” (The Director of Chungcheongbuk-Do Agricultural Research and …, priority 2013, dated 2014).

Molecules are shown by their SMILES.

The test system of this experiment is Sphaerotheca fusca. The experiment in a line: Control effect of sprayed extract on leaves of cucurbitaceous crops infected with Sphaerotheca fusca. Type of experiment: in vivo. As to conditions: 4,000 fold dilution, 7 days after spray. The protocol:
The control effects of the extract of the cultured H55 strain prepared in Example 1 were measured. […] The extract was sprayed once at the initial stage of the development of Sphaerotheca fusca, and at 7 days after the spray of the extract, the control effect of the extract for each crop was measured.

In the case of `CCCOC/C(=N\c1ccc(Cl)cc1C(F)(F)F)n1ccnc1` [Triflumizole], the Control value runs as follows: (Cucumbers) 83.3; (Melons) 42.9; (Oriental melons) 80.0; (Pumpkins) 62.5. Besides, the Diseased leaf area is reported as 10% (Cucumbers), 40% (Melons), 10% (Oriental melons) and 30% (Pumpkins).
